Experimental data as given in patent publication US4435569A, “5-[Substituted amino methyl]pyrrolo[2,3-d]pyrimidine-4-one” (Takeda Chemical Industries, Ltd., priority 1981, dated 1984).
Counter-ions that a name gives are not always drawn.

Columns and labels:
Sarcoma 180 = experiment: Growth inhibition of subcutaneously transplanted Sarcoma 180 in ICR mouse (tumor weight); assay type: in vivo; settings: 1×10^6 cells s.c., 0.5 mg/kg i.p. once daily for 20 consecutive days from 24 h, day 35
Procedure: (§1) One×10^6 Sarcoma 180 cells were subcutaneously transplanted into the right groin of an ICR mouse weighing about 20 grams and starting 24 hours after transplantation, 0.5 mg/kg of the compound of Example 1 in distilled water for injection was intraperitoneally administered once daily for 20 consecutive days. On day 35 after transplantation, the tumorous node was incised, weighed and compared with the specimen of the control (without medication) group. The percent inhibition was 58% relative to the control.

Ehlrich carcinoma cells = experiment: Growth inhibition of transplanted Ehrlich carcinoma in mice (Experimental Example 1 repeated); assay type: in vivo, mouse; settings: mice with Ehrlich carcinoma; as Experimental Example 1: 0.5 mg/kg i.p. once daily for 20 days; day 35
Procedure: as §1
The experiment described in Experimental Example 1 was repeated except that mice transplanted with Ehlrich carcinoma cells were employed.

L5178Y cells = experiment: Inhibitory effect upon the multiplication of tumor cells (L5178Y); assay type: cell-based; settings: Mus musculus, RPMI1640 + 10% fetal calf serum, 48 hours, 37° C., concentration giving cell count of 50% of control, read-out: ED50 (the source's name)
Procedure: Inhibitory effect upon the multiplication of tumor cells
The inhibitory effects of compound (I) upon the multiplication of cells were detected using L5178Y cells (tumor cell) in RPMI1640 medium+10% fetal calf serum for 48 hours at 37° C.
The result was expressed in the concentration of the drug giving a cell count of 50% (ED50) with the average number of cells for the control (not medicated) group on the 2nd day being taken as 100%.

| IC50 (L5178Y cells) | Compound | percent inhibition (tumor weight relative to control) (Sarcoma 180) | percent inhibition rate (tumor weight relative to control) (Ehlrich carcinoma cells) |
| --- | --- | --- | --- |
| 40 µg/mL | Nc1nc2[nH]cc(CNC3CCCC3)c2c(=O)[nH]1 [Example 2, 2-amino-5-cyclopentylaminomethylpyrrolo[2,3-d]pyrimidin-4-one(dihydrochloride)] |  |  |
| 120 µg/mL | Nc1nc2[nH]cc(CN3CCCCC3)c2c(=O)[nH]1 [Example 3, 2-amino-5-piperidinomethylpyrrolo[2,3-d]pyrimidin-4-one (dihydrochloride)] |  |  |

The remaining lines, values behind:

| Compound | IC50 (L5178Y cells) | percent inhibition (tumor weight relative to control) (Sarcoma 180) | percent inhibition rate (tumor weight relative to control) (Ehlrich carcinoma cells) |
| --- | --- | --- | --- |
| CCCNCc1c[nH]c2nc(N)[nH]c(=O)c12 [Example 1, 2-amino-5-propylaminomethylpyrrolo[2,3-d]pyrimidin-4-one (dihydrochloride)] |  | 58% | 75% |
| Nc1nc2[nH]cc(CNCc3ccccc3)c2c(=O)[nH]1 [Example 4, 2-amino-5-benzylaminomethylpyrrolo[2,3-d]pyrimidin-4-one] | 30 µg/mL |  |  |
| Nc1nc2[nH]cc(CN[C@H]3C=C[C@H](O)[C@@H]3O)c2c(=O)[nH]1 [Q base, reference compound] | > 200 µg/mL |  |  |
